Experiments:
[1] = system: Caco-2 colon adenocarcinoma cells; assay: MTT cell viability assay, Caco-2; assay type: cell-based; conditions: Homo sapiens, Caco-2 (not expressing Tau), 72 h, mean ± SEM, read-out: IC50 (metabolic activity)
Method: (§1) Cells harvested from sub-confluent monolayers were seeded at 15,000 cells per mL in a 96-well microtiter plate (Cambridge Technology, Labège, France) and cultured for 24 h under standard conditions. Standard medium was then replaced by fresh medium containing no drugs or compounds at different concentrations. The surviving cells were quantified after 72 h by the MTT assay, according to the manufacturer’s instructions. Briefly, 20 µL of 3-(4,5-diMethylThiazol-2-yl)-2,5diphenyl Tetrazolium bromide (MTT) solution at 5 mg.mL^−1 was added to cells for 3 h at 37 °C. The supernatant was discarded and replaced by 100 µL of dimethyl sulfoxide to dissolve formazan crystals. The absorbance was then read at 600 nm by spectrophotometry. For all concentrations of a given compound, cell viability was expressed as the percentage of the ratio between the mean absorbance of treated cells and the mean absorbance of untreated cells. Three independent experiments were performed, and the data were expressed as percentage of survival (using the untreated cells as 100%) and subjected to statistical analysis (n = 3). The IC50 was calculated using the Chou and Talalay method.

U87 shTau cells [2] = assay: Microtubule network analysis (alpha-tubulin immunofluorescence), U87 shTau; assay type: cell-based, human; conditions: 0–20 µM, 24 h
Method: (§2) For indirect immunofluorescence of mitochondria, 10^4 cells were plated on cover glass and incubated for 24 h with compounds. Cells were then fixed in 4% formaldehyde (in PBS pH 7.4) for 20 min at RT, permeabilized with PBS-Triton X-100 0.5% for 10 min at RT. Immunostaining was carried out overnight at 4 °C with a primary anti-citrate synthase antibody (dilution 1:400 in PBS-BSA 3%; SC390693; SantaCruz Biotechnologies, Heidelberg, Germany). […] Each image was recorded with the CLSM’s spectral mode selecting specific domains of the emission spectrum. The Alexafluor488 and FITC fluorophores were excited at 488 nm with an argon laser, and fluorescence emission was collected between 496 nm and 535 nm. The TRITC fluorophore was excited at 543 nm with a helium–neon laser, and fluorescence was collected between 560 and 620 nm. […]
(§3) The analyses of mitochondria and microtubule networks were performed using, respectively, the ‘Mitochondria analyzer’ plugin for Fiji v1.54f software and the method described in our earlier work. Briefly, a series of images were transferred to the software and corrected for background fluorescence intensity contribution. Next, the surface of 50 single cells was measured by considering the cell shape as the boundary of labelling of actin or α-tubulin cytoskeletons (respectively for measurement on mitochondria or microtubules). […]

U87 shTau cells [3] = assay: Mitochondria network analysis (citrate synthase immunofluorescence), U87 shTau; assay type: cell-based, human; conditions: 5 µM
Method: as §2, §3

U251 glioblastoma cells = assay: MTT cell viability assay, U251; assay type: cell-based; conditions: Homo sapiens, U-251, U251, 72 h, mean ± SEM, read-out: IC50 (metabolic activity)
Method: as §1

U87 shCTRL cells = assay: Mitochondria network analysis (citrate synthase immunofluorescence), U87 shCTRL; assay type: cell-based, human; conditions: 5 µM, 24 h (Figure 4 legend: 48 h)
Method: For indirect immunofluorescence of mitochondria, 10^4 cells were plated on cover glass and incubated for 24 h with compounds. Cells were then fixed in 4% formaldehyde (in PBS pH 7.4) for 20 min at RT, permeabilized with PBS-Triton X-100 0.5% for 10 min at RT. Immunostaining was carried out overnight at 4 °C with a primary anti-citrate synthase antibody (dilution 1:400 in PBS-BSA 3%; SC390693; SantaCruz Biotechnologies, Heidelberg, Germany). The following day, the cells were washed then incubated with anti-mouse secondary antibody (dilution 1:800 in PBS-BSA 3%; A-11029; Invitrogen) and TRITC-phalloidin (dilution 1:2500 in PBS-BSA 3%; P1951; Sigma-Aldrich, Saint-Quentin-Fallavier, France) for 1 h at RT in the dark. For the microtubule network, the same protocol for mitochondria labeling was carried out by replacing with primary anti-α-tubulin antibody (dilution 1:400 in PBS-BSA 1% from a 1 mg/mL solution; monoclonal antibody, clone DM1A, Sigma-Aldrich, Saint-Quentin-Fallavier, France). Next, cells were washed in PBS and cover glasses were mounted with a drop of ProLong® anti-fade solution (Invitrogen). Mitochondria and cytoskeletons were imaged using a confocal laser scanning microscope (CLSM) Leica SP5 with a Leica inverted microscope, equipped with a Plan-Apochromat 63×oil immersion objective (NA = 1.4). Each image was recorded with the CLSM’s spectral mode selecting specific domains of the emission spectrum. The Alexafluor488 and FITC fluorophores were excited at 488 nm with an argon laser, and fluorescence emission was collected between 496 nm and 535 nm. The TRITC fluorophore was excited at 543 nm with a helium–neon laser, and fluorescence was collected between 560 and 620 nm. The public-domain Fiji v1.54f software was used for image analysis.
The analyses of mitochondria and microtubule networks were performed using, respectively, the ‘Mitochondria analyzer’ plugin for Fiji v1.54f software and the method described in our earlier work. Briefly, a series of images were transferred to the software and corrected for background fluorescence intensity contribution. Next, the surface of 50 single cells was measured by considering the cell shape as the boundary of labelling of actin or α-tubulin cytoskeletons (respectively for measurement on mitochondria or microtubules). Then, the mitochondria elongation and mean branch junction per mitochondria parameters, and the surface of the microtubule network, were measured by performing systematically the Otsu method to reduce all gray-level images to binary images. […] Moreover, the ratios of microtubules on cell surfaces were calculated as percentages.

[4] = system: lactate-dehydrogenase (LDH) of U87 shCTRL and U87 shTau cells; assay: LDH activity in the medium (necrosis); assay type: cell-based; conditions: both cell types, 24 h treatment
Method: death. (A) The apoptotic protein casp ase 3 (Casp 3) was analy zed by western blot of U87 shCTRL and U87 shTau cells: for each s ample t he ratio between the amount of Casp3 and GAPDH was calculated as relative fold of the reference value (with or without the compound); n = 3 lysates, ns: non-si gnificant. […]
blot used for quantification. (B) The activity of necrotic LDH protein was analy zed by fluorescence emission in U87 shCTRL (upper panel) and U87 shTau (lower panel) cells. For each s ample, the ratio between LDH florescence was calculated as the percentage of activity against reference value (0,1% Triton); n = 3 lysates; Significant statistical differences were calculated using a non-parametric Mann-Whitney test with **P < 0.01; n.s: non-significant.
(1 picture or pasted object on this page, not shown here)

Row | SMILES | IC50 [1] | change of microtubule network (U87 shTau cells [2]) | impact on the mitochondria networks (U87 shTau cells [3]) | IC50 (U251 glioblastoma cells) | change in elongation index of mitochondria (U87 shCTRL cells) | reduction in the number of branch junctions per mitochondria (U87 shCTRL cells) | LDH activity [4]
1 | Nc1nc2ccc3oc(-c4cccc(Oc5ccccc5)c4)cc(=O)c3c2s1 [Compound 2, 2-amino-7-(3-phenoxyphenyl)-9H-chromeno [6,5-d]thiazol-9-one] | > 100 µM | no change | none of the compounds had an impact | 1.7 ± 0.5 µM | −12.5% | 1.8 fold | remained similar to untreated cells
2 | Nc1nc2ccc3oc(C(=O)O)cc(=O)c3c2s1 [Compound 5] | > 100 µM | no change | none of the compounds had an impact | > 100 µM | No effect | No effect | remained similar to untreated cells

From publication PMC10606064, “2-Aminothiazole-Flavonoid Hybrid Derivatives Binding to Tau Protein and Responsible for Antitumor Activity in Glioblastoma” (International Journal of Molecular Sciences, 2023)
